Experimental data published in US8741350B2, “Taste masked pharmaceutical composition” (Boehringer Ingelheim Vetmedica GmbH, priority 2011, dated 2014).
Read-outs that look alike come from different tables or passages of the source.

Experiments:
[1] = Water solubility (statement); assay type: physicochemical
[2] = background statement; cited from earlier work
[3] = Lipophilicity profile (statement); assay type: physicochemical; conditions: neutral versus acidic pH

Structure (SMILES)	water solubility in words [1]	water solubility in words [2]	lipophilicity profile in words [3]
CC#CCn1c(N2CCC[C@@H](N)C2)nc2c1c(=O)n(Cc1ncccc1C#N)c(=O)n2C.Cl [1-[(3-cyano-pyridin-2-yl)methyl]-3-methyl-7-(2-butyn-1-yl)-8-[3-(R)-amino-piperidin-1-yl]-xanthine monohydrochloride]	water soluble	–	–
COc1ccc(CCN2CCC[C@H](CN3CCc4cc(OC)c(OC)cc4CC3=O)C2)cc1OC.Cl [cilobradine hydrochloride]	–	highly water-soluble	slightly more lipophilic at neutral pH values
COc1ccc(CCN2CCC[C@H](CN3CCc4cc(OC)c(OC)cc4CC3=O)C2)cc1OC [Cilobradine]	–	highly water-soluble	–
